Several values for one entry are separate records, joined by “and”; a condition that tells them apart may be missing. Equal entries are not always repeated. Where two headings read alike, the source gives them in different places.
Test: Pharmacokinetic parameters (Tmax, AUClast, Cmax) of DD217 in phase II trial patients
Format: in vivo, human (patients undergoing knee replacement surgery)
Design: AUClast (area under the concentration-time curve up to the last measurable point) / Cmax (maximum plasma concentration): unit not given here
Details: for AUC(0-t) / Cmax / Tmax: human, plasma, oral; for AUClast (area under the concentration-time curve up to the last measurable point) / Cmax (maximum plasma concentration) / Tmax (time to maximum plasma concentration): individual patients
Excerpt: The design, eligibility criteria, and outcomes of the phase II clinical trial evaluating the safety and tolerability of DD217 (NCT05189002, ClinicalTrials.gov) have been described previously. Briefly, this was a multicenter, double-blind, randomized, prospective phase II study designed to determine the optimal dosing regimen and to assess the safety and efficacy of DD217 for the prevention of venous thromboembolism (VTE) in patients undergoing knee replacement surgery. Patients were randomized into one of three groups: two groups received oral DD217 at doses of 40 mg or 60 mg once daily, starting on the morning of the first postoperative day, and one group received the active comparator, dalteparin sodium. The treatment duration was 14 days.
In total, data from 52 patients who underwent knee replacement surgery were included in the analysis. Of these, 34 patients received DD217 at daily doses of 40 mg (n = 16) or 60 mg (n = 18), and 18 patients received dalteparin sodium.
To characterize the pharmacokinetic profile of DD217 in our study, three parameters were assessed: Cmax, Tmax, and AUClast.

`CC(=N)N(C)c1ccc(C(=O)Nc2ccc(C)cc2C(=O)Nc2ccc(Cl)cn2)cc1.Cl` [DD217, N-(5-chloropyridin-2-yl)-5-methyl-2-[4-(N-methylacetimidamido)benzamido]benzamide hydrochloride] gave an AUC(0-t) (40 mg, CYP2C19 *1/*17, *17/*17, RM + UM (n = 9), mean ± SD, read-out: AUClast) of 47.7 ± 42.6 ng·h/mL, a Cmax (40 mg, CYP2C19 *1/*17, *17/*17, RM + UM (n = 9), mean ± SD, read-out: Cmax) of 5.8 ± 6.73 ng/mL and a Tmax (40 mg, CYP2C19 *1/*17, *17/*17, RM + UM (n = 9), mean ± SD, read-out: Tmax) of 7.67 ± 6.71 h. It also gave an AUC(0-t) (40 mg, CYP3A *1/*1, EM (n = 12), mean ± SD, read-out: AUClast) of 40 ± 42.1 ng·h/mL, a Cmax (40 mg, CYP3A *1/*1, EM (n = 12), mean ± SD, read-out: Cmax) of 5.02 ± 6.92 ng/mL and a Tmax (40 mg, CYP3A *1/*1, EM (n = 12), mean ± SD, read-out: Tmax) of 11.8 ± 9.5 h. The AUC(0-t) (60 mg/day, ABCB1 rs1045642 C/C (n 3), read-out: AUClast (SD)) was 197 ng·h/mL, the Cmax (60 mg/day, ABCB1 rs1045642 C/C (n 3), read-out: Cmax (SD)) was 15.9 ng/mL and the Tmax (60 mg/day, ABCB1 rs1045642 C/C (n 3), read-out: Tmax (SD)) was 2 h. The AUC(0-t) (60 mg/day, ABCB1 rs1045642 T/C (n 8), read-out: AUClast (SD)) was 53.9 ng·h/mL, the Cmax (60 mg/day, ABCB1 rs1045642 T/C (n 8), read-out: Cmax (SD)) was 5.54 ng/mL and the Tmax (60 mg/day, ABCB1 rs1045642 T/C (n 8), read-out: Tmax (SD)) was 7.75 h. It also gave an AUC(0-t) (60 mg/day, ABCB1 rs1045642 T/T (n 7), read-out: AUClast (SD)) of 27.6 ng·h/mL, a Cmax (60 mg/day, ABCB1 rs1045642 T/T (n 7), read-out: Cmax (SD)) of 2.42 ng/mL and a Tmax (60 mg/day, ABCB1 rs1045642 T/T (n 7), read-out: Tmax (SD)) of 13.6 h. For the same molecule, the AUC(0-t) (60 mg/day, ABCB1 rs1128503 C/C (n 4), read-out: AUClast (SD)) was 164 ng·h/mL, the Cmax (60 mg/day, ABCB1 rs1128503 C/C (n 4), read-out: Cmax (SD)) was 14.1 ng/mL and the Tmax (60 mg/day, ABCB1 rs1128503 C/C (n 4), read-out: Tmax (SD)) was 2 h. It also gave an AUC(0-t) (60 mg/day, ABCB1 rs1128503 T/C (n 10), read-out: AUClast (SD)) of 50.5 ng·h/mL, a Cmax (60 mg/day, ABCB1 rs1128503 T/C (n 10), read-out: Cmax (SD)) of 4.66 ng/mL and a Tmax (60 mg/day, ABCB1 rs1128503 T/C (n 10), read-out: Tmax (SD)) of 9 h. For the same molecule, the AUC(0-t) (60 mg/day, ABCB1 rs1128503 T/T (n 4), read-out: AUClast (SD)) was 14 ng·h/mL, the Cmax (60 mg/day, ABCB1 rs1128503 T/T (n 4), read-out: Cmax (SD)) was 1.49 ng/mL and the Tmax (60 mg/day, ABCB1 rs1128503 T/T (n 4), read-out: Tmax (SD)) was 16.2 h. The AUC(0-t) (60 mg/day, ABCB1 rs2032582 G/G (n 4), read-out: AUClast (SD)) was 164 ng·h/mL, the Cmax (60 mg/day, ABCB1 rs2032582 G/G (n 4), read-out: Cmax (SD)) was 14.1 ng/mL and the Tmax (60 mg/day, ABCB1 rs2032582 G/G (n 4), read-out: Tmax (SD)) was 2 h. For the same molecule, the AUC(0-t) (60 mg/day, ABCB1 rs2032582 T/G (n 9), read-out: AUClast (SD)) was 51.6 ng·h/mL, the Cmax (60 mg/day, ABCB1 rs2032582 T/G (n 9), read-out: Cmax (SD)) was 4.87 ng/mL and the Tmax (60 mg/day, ABCB1 rs2032582 T/G (n 9), read-out: Tmax (SD)) was 9.56 h. It also gave an AUC(0-t) (60 mg/day, ABCB1 rs2032582 T/T (n 5), read-out: AUClast (SD)) of 19.4 ng·h/mL, a Cmax (60 mg/day, ABCB1 rs2032582 T/T (n 5), read-out: Cmax (SD)) of 1.74 ng/mL and a Tmax (60 mg/day, ABCB1 rs2032582 T/T (n 5), read-out: Tmax (SD)) of 13.8 h. For the same molecule, the AUC(0-t) (60 mg/day, ABCB1 rs4148738 C/C (n 5), read-out: AUClast (SD)) was 18.9 ng·h/mL, the Cmax (60 mg/day, ABCB1 rs4148738 C/C (n 5), read-out: Cmax (SD)) was 1.78 ng/mL and the Tmax (60 mg/day, ABCB1 rs4148738 C/C (n 5), read-out: Tmax (SD)) was 10.6 h. The AUC(0-t) (60 mg/day, ABCB1 rs4148738 C/T (n 9), read-out: AUClast (SD)) was 51.9 ng·h/mL, the Cmax (60 mg/day, ABCB1 rs4148738 C/T (n 9), read-out: Cmax (SD)) was 4.85 ng/mL and the Tmax (60 mg/day, ABCB1 rs4148738 C/T (n 9), read-out: Tmax (SD)) was 11.3 h. For the same molecule, the AUC(0-t) (60 mg/day, ABCB1 rs4148738 T/T (n 4), read-out: AUClast (SD)) was 164 ng·h/mL, the Cmax (60 mg/day, ABCB1 rs4148738 T/T (n 4), read-out: Cmax (SD)) was 14.1 ng/mL and the Tmax (60 mg/day, ABCB1 rs4148738 T/T (n 4), read-out: Tmax (SD)) was 2 h. For the same molecule, the AUC(0-t) (60 mg, CYP2C8 rs10509681 T/C (n 2), read-out: AUClast (SD)) was 62.5 ng·h/mL, the Cmax (60 mg, CYP2C8 rs10509681 T/C (n 2), read-out: Cmax (SD)) was 5.69 ng/mL and the Tmax (60 mg, CYP2C8 rs10509681 T/C (n 2), read-out: Tmax (h, SD)) was 3 h. The AUC(0-t) (60 mg, CYP2C8 rs10509681 T/T (n 16), read-out: AUClast (SD)) was 68.2 ng·h/mL, the Cmax (60 mg, CYP2C8 rs10509681 T/T (n 16), read-out: Cmax (SD)) was 6.11 ng/mL and the Tmax (60 mg, CYP2C8 rs10509681 T/T (n 16), read-out: Tmax (h, SD)) was 9.81 h. It also gave an AUC(0-t) (60 mg, CYP2C8 rs11572080 C/C (n 16), read-out: AUClast (SD)) of 68.2 ng·h/mL, a Cmax (60 mg, CYP2C8 rs11572080 C/C (n 16), read-out: Cmax (SD)) of 6.11 ng/mL and a Tmax (60 mg, CYP2C8 rs11572080 C/C (n 16), read-out: Tmax (h, SD)) of 9.81 h. The AUC(0-t) (60 mg, CYP2C8 rs11572080 C/T (n 2), read-out: AUClast (SD)) was 62.5 ng·h/mL, the Cmax (60 mg, CYP2C8 rs11572080 C/T (n 2), read-out: Cmax (SD)) was 5.69 ng/mL and the Tmax (60 mg, CYP2C8 rs11572080 C/T (n 2), read-out: Tmax (h, SD)) was 3 h. For the same molecule, the AUC(0-t) (60 mg, CYP2C9 *1/*1, NM (n = 11), mean ± SD, read-out: AUClast) was 37.5 ± 42.4 ng·h/mL, the Cmax (60 mg, CYP2C9 *1/*1, NM (n = 11), mean ± SD, read-out: Cmax) was 3.66 ± 4.07 ng/mL and the Tmax (60 mg, CYP2C9 *1/*1, NM (n = 11), mean ± SD, read-out: Tmax) was 12.9 ± 9.14 h. For the same molecule, the AUC(0-t) (60 mg, CYP2C9 *2/*3, PM (n = 2), mean ± SD, read-out: AUClast) was 177 ± 224 ng·h/mL, the Cmax (60 mg, CYP2C9 *2/*3, PM (n = 2), mean ± SD, read-out: Cmax) was 11.3 ± 13.6 ng/mL and the Tmax (60 mg, CYP2C9 *2/*3, PM (n = 2), mean ± SD, read-out: Tmax) was 2.5 ± 2.12 h. For the same molecule, the AUC(0-t) (60 mg, CYP2C19 *1/*1, NM (n = 8), mean ± SD, read-out: AUClast) was 98 ± 124 ng·h/mL, the Cmax (60 mg, CYP2C19 *1/*1, NM (n = 8), mean ± SD, read-out: Cmax) was 8.44 ± 9.71 ng/mL and the Tmax (60 mg, CYP2C19 *1/*1, NM (n = 8), mean ± SD, read-out: Tmax) was 8.75 ± 10.1 h. The AUC(0-t) (60 mg, CYP2C19 *1/*17, RM (n = 6), mean ± SD, read-out: AUClast) was 50.5 ± 51.6 ng·h/mL, the Cmax (60 mg, CYP2C19 *1/*17, RM (n = 6), mean ± SD, read-out: Cmax) was 4.5 ± 4.61 ng/mL and the Tmax (60 mg, CYP2C19 *1/*17, RM (n = 6), mean ± SD, read-out: Tmax) was 9.17 ± 7.33 h. It also gave an AUC(0-t) (60 mg, CYP3A *1/*1, EM (n = 16), mean ± SD, read-out: AUClast) of 52.7 ± 63.3 ng·h/mL, a Cmax (60 mg, CYP3A *1/*1, EM (n = 16), mean ± SD, read-out: Cmax) of 5.32 ± 6.58 ng/mL and a Tmax (60 mg, CYP3A *1/*1, EM (n = 16), mean ± SD, read-out: Tmax) of 9.75 ± 8.93 h. The “AUClast (area under the concentration-time curve up to the last measurable point)” value (40 mg/day oral) was 39.7 and 128.526 and 20.601 and 13.049 and 18.213 and 10.234 and 34.56 and 101.166 and 120.462 and 21.211 and 2.735 and 84.631 and 10.412 and 4.928 and 48.451 and 17.602, the “Cmax (maximum plasma concentration)” value (40 mg/day oral) was 3.95 and 22.764 and 1.686 and 1.136 and 1.739 and 0.656 and 5.76 and 15.011 and 19.462 and 3.535 and 0.456 and 5.034 and 0.72 and 0.405 and 3.119 and 1.379 and the “Tmax (time to maximum plasma concentration)” value (40 mg/day oral) was 1 h and 12 h. The “AUClast (area under the concentration-time curve up to the last measurable point)” value (60 mg/day oral) was 19.08 and 237.522 and 35.852 and 16.597 and 21.462 and 105.854 and 58.513 and 4.589 and 25.375 and 51.929 and 37.407 and 14.483 and 13.976 and 62.698 and 11.57 and 152.359 and 11.552 and 335.306, the “Cmax (maximum plasma concentration)” value (60 mg/day oral) was 1.663 and 25.28 and 3.324 and 1.155 and 1.59 and 9.707 and 7.329 and 0.325 and 2.291 and 4.963 and 2.974 and 1.614 and 1.37 and 8.694 and 1.712 and 13.569 and 0.613 and 20.897 and the “Tmax (time to maximum plasma concentration)” value (60 mg/day oral) was 1 h and 12 h and 5 h.
